The source of these data is ChEMBL document CHEMBL4673406, “Discovery and Preclinical Evaluation of BMS-986242, a Potent, Selective Inhibitor of Indoleamine-2,3-dioxygenase 1” (ACS Med Chem Lett, 2021).

Data set [1] concerns the target Neuronal acetylcholine receptor subunit alpha-7 (Homo sapiens, UniProt P36544). In words: Inhibition of alpha7 nAChR (unknown origin).
A short description of data set [2]: Permeability of the compound at pH 7.4 by PAMPA. It is filed as ADME. To be noted: read-out: permeability.
Data set [3] deals with Indoleamine 2,3-dioxygenase 1 (Homo sapiens, UniProt P14902). Kind of data set: Inhibition of IDO1 in IFNgamma-stimulated human HeLa cells preincubated for 2 hrs followed by IFNgamma stimulation and measured after 18 hrs by.
Sequence of Indoleamine 2,3-dioxygenase 1 (P14902 whole entry): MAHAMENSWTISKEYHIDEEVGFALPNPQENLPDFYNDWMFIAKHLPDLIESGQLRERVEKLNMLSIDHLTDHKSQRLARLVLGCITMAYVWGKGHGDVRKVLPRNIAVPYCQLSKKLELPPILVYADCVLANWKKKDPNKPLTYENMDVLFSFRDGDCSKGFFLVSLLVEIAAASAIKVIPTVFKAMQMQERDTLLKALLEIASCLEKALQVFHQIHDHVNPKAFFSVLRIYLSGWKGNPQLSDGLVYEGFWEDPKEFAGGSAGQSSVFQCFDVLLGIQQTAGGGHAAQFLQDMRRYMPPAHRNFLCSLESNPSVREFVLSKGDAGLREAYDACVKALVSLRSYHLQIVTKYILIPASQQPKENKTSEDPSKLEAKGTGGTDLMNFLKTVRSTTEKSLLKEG
The target in a further data set is Cytochrome P450 2C9 (Homo sapiens, UniProt P11712). In words: Inhibition of human CYP2C9. It is filed as ADME.
Sequence of Cytochrome P450 2C9 (P11712 whole entry): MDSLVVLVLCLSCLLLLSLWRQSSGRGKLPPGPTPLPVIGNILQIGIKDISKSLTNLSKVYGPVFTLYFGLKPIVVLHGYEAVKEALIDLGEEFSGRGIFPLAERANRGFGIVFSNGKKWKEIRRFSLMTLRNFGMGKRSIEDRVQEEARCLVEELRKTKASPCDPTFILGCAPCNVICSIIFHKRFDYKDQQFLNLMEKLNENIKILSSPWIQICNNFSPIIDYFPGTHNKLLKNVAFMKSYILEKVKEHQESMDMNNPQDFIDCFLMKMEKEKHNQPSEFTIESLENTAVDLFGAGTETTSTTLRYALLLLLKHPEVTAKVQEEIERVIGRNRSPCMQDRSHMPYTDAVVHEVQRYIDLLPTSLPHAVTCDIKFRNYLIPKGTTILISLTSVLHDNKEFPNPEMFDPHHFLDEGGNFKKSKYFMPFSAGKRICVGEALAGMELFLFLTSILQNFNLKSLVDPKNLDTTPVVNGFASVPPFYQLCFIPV
A short description of data set [4]: AUC in rat at 0.5 mg/kg, iv. It is filed as ADME, organism-based. The arrangement: dose 0.5 mg/kg. Conditions: in vivo.
A short description of data set [5]: AUC in rat at 6 mg/kg, po. It counts as ADME, organism-based. On the set-up: dose 6 mg/kg. To be noted: in vivo.
Data set [6] is described as follows: Half life in cynomolgus monkey at 1 mg/kg, iv. To be noted: in vivo. It counts as ADME, organism-based, Macaca fascicularis.
Data set [7] can be described thus: Oral bioavailability in rat at 2 mg/kg. To be noted: in vivo. It is filed as ADME, organism-based.
Data set [8] can be described thus: Protein binding in mouse plasma assessed as free fraction. It is filed as ADME, cell-free.
The nature of data set [9]: Metabolic stability in dog hepatocytes assessed as CYP450-mediated compound metabolism by measuring half life. It counts as ADME, cell-based, Canis lupus familiaris, Hepatocyte.
A short description of data set [10]: AUC in dog at 1 mg/kg, iv. It counts as ADME, organism-based, Canis lupus familiaris. The arrangement: dose 1 mg/kg. Conditions: in vivo.
Another data set concerns the target T1, Cytochrome P450 2C8 (Homo sapiens, UniProt P10632).
T1 sequence (P10632 whole entry): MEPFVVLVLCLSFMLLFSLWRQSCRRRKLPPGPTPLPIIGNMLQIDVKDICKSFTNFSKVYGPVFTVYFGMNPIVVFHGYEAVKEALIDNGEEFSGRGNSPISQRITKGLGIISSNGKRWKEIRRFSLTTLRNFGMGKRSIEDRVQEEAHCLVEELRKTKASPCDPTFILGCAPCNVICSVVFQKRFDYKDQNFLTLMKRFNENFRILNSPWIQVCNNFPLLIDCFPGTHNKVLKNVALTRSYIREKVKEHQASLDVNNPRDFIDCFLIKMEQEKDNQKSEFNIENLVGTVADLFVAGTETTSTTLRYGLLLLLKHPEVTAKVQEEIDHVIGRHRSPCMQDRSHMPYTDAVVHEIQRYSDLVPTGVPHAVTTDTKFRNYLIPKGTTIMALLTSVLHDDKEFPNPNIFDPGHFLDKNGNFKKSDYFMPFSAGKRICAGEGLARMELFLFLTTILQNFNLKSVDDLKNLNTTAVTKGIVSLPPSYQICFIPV
In words: Inhibition of human CYP2C8. It counts as ADME.

For another data set, the target named is CYP450 (Homo sapiens, UniProt P04798+P05177+P05181+P08684+P10632+P10635+P11509+P11712+P13584+P20813+P20815+P20853+P24462+P24903+P33260+P33261+P51589+P78329+P98187+Q02928+Q08477+Q16678+Q16696+Q5TCH4+Q6VVX0+Q7Z449+Q8TAV3+Q96SQ9+Q9HB55). In words: Inhibition of human CYP450. It counts as ADME, protein assay.
A short description of data set [11]: Metabolic stability in mouse hepatocytes assessed as CYP450-mediated compound metabolism by measuring half life. It counts as ADME, cell-based, Hepatocyte.
Data set [12] can be described thus: Volume of distribution at steady state in cynomolgus monkey at 1 mg/kg, iv. It counts as ADME, organism-based, Macaca fascicularis. Conditions: in vivo.
The nature of data set [13]: Metabolic stability in mouse hepatocytes assessed as UGT-mediated compound glucuronidation by measuring half life. It counts as ADME, cell-based, Hepatocyte.
Data set [14] can be described thus: Metabolic stability in cynomolgus monkey hepatocytes assessed as CYP450-mediated compound metabolism by measuring half life. It counts as ADME, cell-based, Macaca fascicularis, Hepatocyte.
The nature of data set [15]: AUC in mouse at 0.5 mg/kg, iv. It counts as ADME, organism-based. The arrangement: dose 0.5 mg/kg. Conditions: in vivo.

Sequence of Neuronal acetylcholine receptor subunit alpha-7 (P36544 whole entry): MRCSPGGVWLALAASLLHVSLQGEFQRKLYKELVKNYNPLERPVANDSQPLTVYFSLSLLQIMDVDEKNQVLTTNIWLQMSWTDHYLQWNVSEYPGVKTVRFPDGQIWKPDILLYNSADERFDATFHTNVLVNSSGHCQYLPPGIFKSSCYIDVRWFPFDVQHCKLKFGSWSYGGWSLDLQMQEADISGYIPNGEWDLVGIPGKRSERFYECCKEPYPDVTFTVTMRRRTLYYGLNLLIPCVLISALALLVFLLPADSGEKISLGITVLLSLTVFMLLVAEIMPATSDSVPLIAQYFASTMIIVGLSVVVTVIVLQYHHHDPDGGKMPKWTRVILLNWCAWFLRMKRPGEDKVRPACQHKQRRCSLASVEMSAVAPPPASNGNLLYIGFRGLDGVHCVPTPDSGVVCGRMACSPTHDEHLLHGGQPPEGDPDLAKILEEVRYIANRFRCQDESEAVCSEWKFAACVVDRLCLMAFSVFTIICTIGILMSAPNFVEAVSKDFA

Consider `C[C@@H](NC(=O)c1ccc(Cl)cc1)[C@H]1CC[C@@H](c2ccnc3ccc(F)cc32)CC1`, for which the IC50 in data set [1] is over 6 µM; in data set [3] it was 0.002 µM; on Cytochrome P450 2C9, 0.74 µM; on Cytochrome P450 2C8, 1.39 µM; at CYP450, over 15 µM. In addition, in data set [2], the Papp is 2830 nm/s. The AUC in data set [4] came out at 5.6 µM·h; in data set [5] it was 28.2 µM·h; in data set [10] it was 8.7 µM·h; in data set [15], 0.69 µM·h. Besides, the t1/2 in data set [6] was 2 min. Besides, the bioavailability in [7] was found to be 127%. The Fu in [8] is under 0.2%. Moreover, the half-life in [9] is 10 min; in data set [11] it was 4 min; in data set [13], over 120 min; in data set [14] it was 2 min. For the same compound, the Vdss in data set [12] turned out to be 1 L/kg.
